In the NIST ThermoML archive (doi:10.1016/j.jct.2018.01.003):
± gives the expanded uncertainty stated by the source.

Assay: activity coefficient (dimensionless); of the first substance listed, at infinite dilution; xn = mol fraction of the nth substance listed
Settings: 101.33 kPa, Liquid, Chromatography, x1 = 0

Compound	activity coefficient (328.15 K)	activity coefficient (338.15 K)	activity coefficient (348.15 K)	activity coefficient (358.15 K)	activity coefficient (368.15 K)
Cc1ccc(C)cc1 [1,4-dimethylbenzene] + CCCCCCCCCCCCCC[P+](CCCCCC)(CCCCCC)CCCCCC.N#CC(=C=[N-])C#N	0.71 ± 0.047	0.742 ± 0.049	0.773 ± 0.051	0.804 ± 0.052	0.83 ± 0.053
COC(C)=O [methyl ethanoate] + CCCCCCCCCCCCCC[P+](CCCCCC)(CCCCCC)CCCCCC.N#CC(=C=[N-])C#N	0.65 ± 0.044	0.669 ± 0.045	0.685 ± 0.046	0.704 ± 0.047	0.721 ± 0.048
CCCCCCCC [octane] + CCCCCCCCCCCCCC[P+](CCCCCC)(CCCCCC)CCCCCC.N#CC(=C=[N-])C#N	2.35 ± 0.16	2.36 ± 0.16	2.37 ± 0.16	2.38 ± 0.16	2.39 ± 0.16
CCCC(=O)OC [methyl butanoate] + CCCCCCCCCCCCCC[P+](CCCCCC)(CCCCCC)CCCCCC.N#CC(=C=[N-])C#N	0.652 ± 0.045	0.683 ± 0.046	0.709 ± 0.047	0.739 ± 0.049	0.764 ± 0.05
C1CCOC1 [tetrahydrofuran] + CCCCCCCCCCCCCC[P+](CCCCCC)(CCCCCC)CCCCCC.N#CC(=C=[N-])C#N	0.381 ± 0.033	0.4 ± 0.034	0.417 ± 0.035	0.436 ± 0.035	0.453 ± 0.036
C=Cc1ccccc1 [styrene] + CCCCCCCCCCCCCC[P+](CCCCCC)(CCCCCC)CCCCCC.N#CC(=C=[N-])C#N	0.496 ± 0.038	0.52 ± 0.039	0.544 ± 0.04	0.57 ± 0.041	0.593 ± 0.042
CCc1ccccc1 [ethylbenzene] + CCCCCCCCCCCCCC[P+](CCCCCC)(CCCCCC)CCCCCC.N#CC(=C=[N-])C#N	0.701 ± 0.047	0.729 ± 0.048	0.756 ± 0.05	0.783 ± 0.051	0.805 ± 0.052
CC(C)O [propan-2-ol] + CCCCCCCCCCCCCC[P+](CCCCCC)(CCCCCC)CCCCCC.N#CC(=C=[N-])C#N	0.503 ± 0.038	0.507 ± 0.038	0.51 ± 0.038	0.514 ± 0.038	0.516 ± 0.038
O [water] + CCCCCCCCCCCCCC[P+](CCCCCC)(CCCCCC)CCCCCC.N#CC(=C=[N-])C#N	1.92 ± 0.13	1.77 ± 0.12	1.65 ± 0.11	1.54 ± 0.1	1.44 ± 0.09

Other lines, results leading:

activity coefficient (328.15 K)	activity coefficient (338.15 K)	activity coefficient (348.15 K)	activity coefficient (358.15 K)	activity coefficient (368.15 K)	Compound
0.424 ± 0.035	0.435 ± 0.035	0.445 ± 0.036	0.455 ± 0.036	0.464 ± 0.036	CCCCO [butan-1-ol] + CCCCCCCCCCCCCC[P+](CCCCCC)(CCCCCC)CCCCCC.N#CC(=C=[N-])C#N
0.459 ± 0.036	0.481 ± 0.037	0.5 ± 0.038	0.519 ± 0.039	0.536 ± 0.039	c1ccccc1 [benzene] + CCCCCCCCCCCCCC[P+](CCCCCC)(CCCCCC)CCCCCC.N#CC(=C=[N-])C#N
2.32 ± 0.16	2.37 ± 0.16	2.41 ± 0.16	2.45 ± 0.17	2.49 ± 0.17	C=CCCCCCCCC [1-decene] + CCCCCCCCCCCCCC[P+](CCCCCC)(CCCCCC)CCCCCC.N#CC(=C=[N-])C#N
	0.459 ± 0.036	0.477 ± 0.037	0.502 ± 0.038	0.52 ± 0.039	CCCC(C)=O [pentan-2-one] + CCCCCCCCCCCCCC[P+](CCCCCC)(CCCCCC)CCCCCC.N#CC(=C=[N-])C#N
0.492 ± 0.037	0.503 ± 0.038	0.513 ± 0.038	0.526 ± 0.039	0.537 ± 0.039	CC(C)(C)O [2-methylpropan-2-ol] + CCCCCCCCCCCCCC[P+](CCCCCC)(CCCCCC)CCCCCC.N#CC(=C=[N-])C#N
